Reference: article PMC6277434, “Discovery of a potent HMG-CoA reductase degrader that eliminates statin-induced reductase accumulation and lowers cholesterol” (Nature Communications, 2018)

What was measured:
[1] = target: T1, WT HMGCR (Cricetulus griseus, UniProt P00347); assay: Degradation of transfected wild-type HMGCR (with Insig-1) in CHO-7 cells; type: cell-based; details: cells co-expressing wild-type HMGCR and Insig-1, 5 h
T1 construct: expressed in transfected cells; host or cells: CHO-7
T1 sequence (P00347 1-887): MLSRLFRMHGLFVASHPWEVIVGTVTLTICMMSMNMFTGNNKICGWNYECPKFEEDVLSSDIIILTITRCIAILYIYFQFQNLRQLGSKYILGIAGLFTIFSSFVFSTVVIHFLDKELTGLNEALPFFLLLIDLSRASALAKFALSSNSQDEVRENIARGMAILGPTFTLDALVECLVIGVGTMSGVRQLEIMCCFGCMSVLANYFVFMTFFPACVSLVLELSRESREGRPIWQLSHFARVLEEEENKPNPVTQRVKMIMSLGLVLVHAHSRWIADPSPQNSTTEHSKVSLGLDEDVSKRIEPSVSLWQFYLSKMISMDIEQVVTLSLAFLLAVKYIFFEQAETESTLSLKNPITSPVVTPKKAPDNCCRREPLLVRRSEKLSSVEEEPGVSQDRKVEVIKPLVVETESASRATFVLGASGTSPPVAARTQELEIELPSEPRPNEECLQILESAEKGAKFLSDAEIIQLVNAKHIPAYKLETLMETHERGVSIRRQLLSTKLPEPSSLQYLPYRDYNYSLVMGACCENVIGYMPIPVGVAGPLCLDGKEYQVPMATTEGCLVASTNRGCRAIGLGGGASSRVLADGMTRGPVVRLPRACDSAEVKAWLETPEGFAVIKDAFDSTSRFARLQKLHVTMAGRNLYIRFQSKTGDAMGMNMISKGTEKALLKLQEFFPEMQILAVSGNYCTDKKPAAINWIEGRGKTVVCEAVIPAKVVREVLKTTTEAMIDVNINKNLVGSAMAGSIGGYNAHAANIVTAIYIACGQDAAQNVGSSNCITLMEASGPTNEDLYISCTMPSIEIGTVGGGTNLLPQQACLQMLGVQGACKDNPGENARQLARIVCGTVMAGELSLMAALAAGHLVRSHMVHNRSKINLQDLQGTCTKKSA
T1 sequence (O15503 1-277 partner): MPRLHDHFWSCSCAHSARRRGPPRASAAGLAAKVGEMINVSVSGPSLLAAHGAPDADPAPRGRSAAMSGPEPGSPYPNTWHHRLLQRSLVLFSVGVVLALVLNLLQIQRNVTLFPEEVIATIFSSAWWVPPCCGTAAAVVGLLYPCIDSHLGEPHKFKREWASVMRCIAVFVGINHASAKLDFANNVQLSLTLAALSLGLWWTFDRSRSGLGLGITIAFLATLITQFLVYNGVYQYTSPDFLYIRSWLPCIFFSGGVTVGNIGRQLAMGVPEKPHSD
Experimental: HMGCR protein of DMSO-treated cells was defined as 100. […] Lysates were immunoprecipitated and pellets were probed for anti-ubiquitin (P4D1) and anti-HMGCR (A9). e CHO-7 cells were transfected with indicated plasmids and treated as in d. Lysates were immunoprecipitated with anti-Flag M2 beads, and pellets were probed for anti-ubiquitin (HA) and anti-HMGCR (Flag). f CHO-7 cells were transfected with indicated plasmids, then treated with Cmpd 81 for 5 h. […] Data are from three independent experiments and presented as mean ± SD. Source data are provided as a Source Data File.
Cells were harvested and homogenized in the RIPA buffer (50 mM Tris-HCl, pH 8.0, 150 mM NaCl, 2 mM MgCl2, 1.5% NP-40, 0.1% SDS, and 0.5% sodium deoxycholate) supplemented with protease cocktail inhibitor, 10 μM MG-132, 10 μg ml^−1 leupeptin and 1 mM phenylmethylsulfonyl fluoride. The protein concentrations of lysates were determined using BCA method (Beyotime). […] Western blot images were captured by Amersham Imager 600 (GE Healthcare), and integrated optical intensities of each band were quantified by Image-Pro Plus 6 software (Media Cybernetics). […]

[2] = target: hERG potassium channel (Homo sapiens, UniProt Q12809); assay: hERG electrophysiology patch-clamp assay (CHO-hERG cells, QPatch); details: even at 40 μM
Chain of hERG potassium channel (Q12809 whole entry): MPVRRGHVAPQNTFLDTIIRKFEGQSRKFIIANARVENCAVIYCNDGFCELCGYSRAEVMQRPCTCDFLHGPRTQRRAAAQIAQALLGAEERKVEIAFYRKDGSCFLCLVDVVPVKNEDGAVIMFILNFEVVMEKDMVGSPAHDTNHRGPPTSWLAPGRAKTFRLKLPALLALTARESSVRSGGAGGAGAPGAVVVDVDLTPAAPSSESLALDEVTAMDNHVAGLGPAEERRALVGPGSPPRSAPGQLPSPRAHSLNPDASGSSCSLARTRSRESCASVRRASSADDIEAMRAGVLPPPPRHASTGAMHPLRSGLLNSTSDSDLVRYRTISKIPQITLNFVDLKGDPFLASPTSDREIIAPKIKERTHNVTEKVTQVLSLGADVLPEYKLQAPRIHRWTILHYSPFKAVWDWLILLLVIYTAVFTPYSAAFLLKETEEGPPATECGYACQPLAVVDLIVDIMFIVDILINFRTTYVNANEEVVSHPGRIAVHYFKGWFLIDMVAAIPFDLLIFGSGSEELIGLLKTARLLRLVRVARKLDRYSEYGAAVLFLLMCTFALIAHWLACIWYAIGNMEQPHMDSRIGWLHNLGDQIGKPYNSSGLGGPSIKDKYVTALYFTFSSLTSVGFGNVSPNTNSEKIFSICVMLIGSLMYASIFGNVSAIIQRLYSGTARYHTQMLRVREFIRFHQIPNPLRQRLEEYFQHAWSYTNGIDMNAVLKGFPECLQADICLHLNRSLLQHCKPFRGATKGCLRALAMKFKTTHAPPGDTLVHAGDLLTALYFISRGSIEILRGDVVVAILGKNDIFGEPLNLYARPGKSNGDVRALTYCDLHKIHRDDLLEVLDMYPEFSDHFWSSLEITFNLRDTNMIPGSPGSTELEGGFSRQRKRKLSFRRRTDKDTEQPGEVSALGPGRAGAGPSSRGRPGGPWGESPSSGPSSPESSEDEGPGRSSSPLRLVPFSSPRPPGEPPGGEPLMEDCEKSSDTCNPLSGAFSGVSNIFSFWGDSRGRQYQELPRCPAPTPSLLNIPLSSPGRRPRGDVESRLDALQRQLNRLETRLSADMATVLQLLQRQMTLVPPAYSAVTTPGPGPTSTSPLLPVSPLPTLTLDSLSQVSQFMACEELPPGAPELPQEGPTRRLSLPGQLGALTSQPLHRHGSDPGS

[3] = test system: Hmgcr mRNA; assay: RT-qPCR of Hmgcr mRNA in CHO-7 cells; type: cell-based, Chinese hamster; details: DMSO = 1; for HMGCR mRNA level, mean: 16 h
Experimental: (§1) Cells were treated as described in corresponding figure legends, then total RNA was extracted from cells or mouse livers using TRI Reagent (T9424, Sigma-Aldrich). Equal amounts of RNA from cells or mice receiving the same treatment were pooled were used for cDNA synthesis with oligo dT and reverse transcriptase MLV (Promega). Gene expression was analyzed by quantitative real-time PCR on a Stratagene Mx30005PTM Q-PCR Systems. The primers used were listed in Supplementary Tables 2–4.

[4] = test system: Hmgcr mRNA; assay: RT-qPCR of Hmgcr mRNA in SRD-13A cells; type: cell-based, Chinese hamster; design: HMGCR mRNA level, mean: scale not given here; details: for HMGCR mRNA level, mean: SRD-13A, 16 h
Experimental: as §1

## C=CCC(O)(CC=C)CCCC(C)C1CCC2C3C(O)C=C4C(C)(C)C(O)CCC4(C)C3CCC12C (stereo not shown) [Cmpd 81]
[1]
  protein level of transfected wild-type HMGCR: a reduction of the protein level
[2]
  inhibition of hERG peak tail currents: no inhibition effect

## CC[C@H](C)C(=O)O[C@H]1C[C@@H](C)C=C2C=C[C@H](C)[C@H](CC[C@@H]3C[C@@H](O)CC(=O)O3)[C@H]21 [Lovastatin, lovastatin]
[3]; CHO-7, lovastatin 0.001 uM
  HMGCR mRNA level, mean: 1.196
[3]; CHO-7, lovastatin 0.003 uM
  HMGCR mRNA level, mean: 1.51
[3]; CHO-7, lovastatin 0.01 uM
  HMGCR mRNA level, mean: 1.897
[3]; CHO-7, lovastatin 0.03 uM
  HMGCR mRNA level, mean: 2.523
[3]; CHO-7, lovastatin 0.1 uM
  HMGCR mRNA level, mean: 2.959
[3]; CHO-7, lovastatin 0.3 uM
  HMGCR mRNA level, mean: 3.447
[3]; CHO-7, lovastatin 1 uM
  HMGCR mRNA level, mean: 3.688
[3]; CHO-7, lovastatin 3 uM
  HMGCR mRNA level, mean: 3.602
[3]; CHO-7, lovastatin 10 uM
  HMGCR mRNA level, mean: 3.663
[3]; CHO-7 cells, statin 16 h (lovastatin up to 10 μM)
  increase of Hmgcr mRNA abundance: 3.6 fold
[4]; SRD-13A cells, lovastatin 16 h
  change in the amounts of Hmgcr mRNA: no change
[4]; lovastatin 0.001 uM
  HMGCR mRNA level, mean: 1
[4]; lovastatin 0.003 uM
  HMGCR mRNA level, mean: 1.03
[4]; lovastatin 0.01 uM
  HMGCR mRNA level, mean: 1.0471
[4]; lovastatin 0.03 uM
  HMGCR mRNA level, mean: 1.185
[4]; lovastatin 0.1 uM
  HMGCR mRNA level, mean: 1.052
[4]; lovastatin 0.3 uM
  HMGCR mRNA level, mean: 0.9958
[4]; lovastatin 1 uM
  HMGCR mRNA level, mean: 1.197
[4]; lovastatin 3 uM
  HMGCR mRNA level, mean: 1.009
[4]; lovastatin 10 uM
  HMGCR mRNA level, mean: 1.04
